{"source": "patent US12698534B2", "about": "“Systems and methods for characterizing and treating disease” (Arizona Board of Regents on Behalf of the University of …, priority 2019, dated 2026)", "molecules": {"B1": {"name": "human LINE-1 ORF1 protein (L1-ORF1p) (other, UniProt Q9UN81 1-338, looked up)", "chain": "MGKKQNRKTGNSKTQSASPPPKERSSSPATEQSWMENDFDELREEGFRRSNYSELREDIQTKGKEVENFEKNLEECITRITNTEKCLKELMELKTKARELREECRSLRSRCDQLEERVSAMEDEMNEMKREGKFREKRIKRNEQSLQEIWDYVKRPNLRLIGVPESDVENGTKLENTLQDIIQENFPNLARQANVQIQEIQRTPQRYSSRRATPRHIIVRFTKVEMKEKMLRAAREKGRVTLKGKPIRLTADLSAETLQARREWGPIFNILKEKNFQPRISYPAKLSFISEGEIKYFIDKQMLRDFVTTRPALKELLKEALNMERNNRYQPLQNHAKM", "notes": "Endogenous protein detected on Western blots of human cell lysates and EV extracts; Seen as a monomer, a dimer and higher multimers"}}, "key": {"L1-ORF1p": {"test_system": "L1-ORF1p", "test": "L1-ORF1p expression by immunoblotting in lung cells treated with NCL antagonists", "type": "cell-based, human", "experimental": "Cell lines were purchased from the American Type Culture Collection (ATCC). Cells were grown in a humidified environment at 37° C. with 5% CO2. Cell lines were confirmed to be free of mycoplasma contamination (MycoAlert; Lonza). NSCLC cell lines (NCI-H460, NCI-H520, NCI-H1299, and A549) were grown in RPMI medium supplemented with fetal bovine serum at a concentration of 10%, […] penicillin and […] streptomycin (Life Technologies). The human bronchial epithelial cell lines BEAS-2B and BZR were grown in LHC-9 medium (Thermo Fisher Scientific). Verification of all cell line identities was performed by short tandem repeat (STR) sequencing using reference databases from ATCC (Genetics Core, University of Arizona, AZ). […] All protein concentrations were determined using the bicinchoninic acid assay (Thermo Fisher Scientific).\nTotal cell lysates were resolved by SDS-polyacrylamide gel electrophoresis and electrotransferred onto polyvinylidene fluoride membranes (Millipore) in Tris-glycine buffer containing 20% methanol. Proteins were detected by immunoblotting. […]"}, "LINE-1 mRNA": {"test_system": "LINE-1 mRNA", "test": "LINE-1 mRNA and RNA in cells and exosomes by RT-qPCR", "type": "cell-based, Human", "settings": "H460 exosomes", "description": "(§1) Human 460 large cell lung carcinoma cells were authenticated by the UA tissue culture core facility and then cultured in RPMI media (Gibco) supplemented with 10% exosome-free FBS. One day before exposure, cells were counted, seeded, and allowed to attach overnight. Prior to each exposure, medium was removed and cells were washed with PBS to remove cellular debris and extracellular vesicles. After exposure, culture medium was harvested for exosome collection, cells were detached with trypsin-EDTA (Gibco), counted via hemocytometer, and cell viability was assessed using trypan blue exclusion.\n(§2) Nucleic acids were extracted from cell and exosome pellets using the Quick DNA-RNA Miniprep Plus. RNA was subjected to an additional DNAseI digestion on-column (RNA from cells) or prior to reverse transcription (RNA from exosomes; Turbo DNA-free; Invitrogen). Following isolation DNA and RNA quantity and integrity were assessed using the Cytation X system. LINE-1 mRNA was detected in equal volumes of exosome RNA using OneStep RT-qPCR (NEB). To assess cellular LINE-1 mRNA levels, LINE-1 mRNA was normalized to B-Actin mRNA and expressed as a fold change from control using the Pfaffl technique. […] Briefly, the fluorescence units from the reverse transcription control (RTC; no reverse transcriptase enzyme) for each sample was subtracted from the complete sample amplification and the remaining fluorescence units were divided by cell number. The resulting values approximate the amount of LINE-1 or BActin mRNA present in exosomes that is also normalized by cell number. LINE-1 DNA copies were quantified using absolute qPCR quantification. Briefly, known copy numbers of plasmids bearing the LINE-1 sequence were used to create a standard curve, which could then be used to calculated copy number from samples. These copy numbers were then divided by cell number to yield the number of LINE-1 DNA copies per cell (cellular DNA) and the number of exosome LINE-1 DNA copies per cell (exosome DNA)."}, "[1]": {"test_system": "Human 460 large cell lung carcinoma cells", "test": "BaP exposure of H460 cells: cell count and trypan blue viability", "type": "cell-based", "settings": "for cell number at conclusion of exposure, mean (±SEM): 48 hour", "description": "as §1"}, "LINE-1": {"test_system": "LINE-1", "test": "LINE-1 mRNA and ORF1p in extracellular vesicles of BaP-stimulated H460 cells", "type": "cell-based, human", "settings": "48 h, various concentrations", "experimental": "EV isolation: Media were centrifuged at 500×g for 5 min to remove cells and concentrated using a 100 kDa MWCO Amicon filter. Samples were then centrifuged at 25,000×g for 30 min to pellet apoptotic vesicles and cellular debris followed by ultracentrifugation at 100,000×g for 2 h. The EV pellet was washed in PBS and either re-centrifuged at 100,000×g or loaded onto an iodixanol gradient.\nTotal RNA was harvested (Zymo) and subjected to post-elution DNAse digestion. A cDNA was created using oligo d (T) primers. Gene expression analysis was performed via qPCR using probe-based detection. Expression was expressed as a fold change from the EV-free medium (EFM)."}, "LINE-1 DNA": {"test_system": "LINE-1 DNA", "test": "LINE-1 DNA copies in cells and exosomes by absolute qPCR", "type": "cell-based, Human", "settings": "for exosome LINE-1 DNA copies released per cell, mean (±SE): H460 exosomes", "description": "as §1, §2"}, "[2]": {"test_system": "ORFeus^LSL transgene (human LINE-1)", "test": "ORFeus LINE-1 mRNA by RT-qPCR in mouse tissues", "type": "in vivo, mice", "experimental": "(§3) A BioLite Intubation System (Braintree Scientific Inc, USA) was used for intratracheal instillation of ORFeus^LSL mice (29-38 g) anesthetized with ketamine and xylazine (100 mg/kg and 10 mg/kg, respectively). All mice were genotyped to confirm genetic identity. Control mice were given one dose of 5×10^10 PFU adenoCRE recombinase dissolved in H2O or DMSO. […] Mice were sacrificed by cervical dislocation after euthanasia with CO2 one-week after treatment. Tissues were collected and stored at 4° C. in RNA later (Thermo Fisher Scientific, CA).\nRNA was extracted using the RNeasy Plus Mini Kit (Qiagen, MD). An aliquot of 250 ng RNA was reverse transcribed into first-strand cDNA using SuperScript® III (Invitrogen, CA). RT-qPCR was carried out for LINE-1 and nine genes within its oncogenic regulatory network. […] GAPDH was used as a control. Each reaction included 4.0 μL of cDNA, 0.5 μL of gene-specific primer pairs, and 5.0 μL SyberGreen dye and ddH2O to a final volume of 20 μL. Amplifications were completed using StepOnePlus™ RT-qPCR System and fold changes calculated using 2^−ΔΔct."}, "[3]": {"test_system": "Lung tissues in ORFeus^LSL mice", "test": "Lung histology and general toxicity after intratracheal instillation", "type": "in vivo", "experimental": "as §3, with “DMSO. The optimal adenovirus dose was defined empirically as a dose that only modestly activated the transgene.” for “DMSO.”\nLung sections were snap-frozen in OCT. Tissues were fixed with cold acetone and stained with hematoxylin and eosin. Samples were evaluated blindly by two pathologists."}, "[4]": {"test_system": "H460 large cell lung cancer cells", "test": "Exosome quantity and size by Nanosight NTA after BaP exposure", "type": "cell-based, Human", "set-up": "number of exosomes released per cell: dose or concentration left out as unconfirmed", "description": "as §1\nCell media was centrifuged at 500×g for 5 minutes to remove cells and large debris and then stored at −80° C. To isolate exosomes, cell medium was centrifuged at 25,000×g for 1.5 hours to remove apoptotic bodies and other large extracellular vesicles. To precipitate exosomes, polyethylene glycol (PEG) MW 6,000 was added to the supernatant to a final concentration of 10% (w/v), and centrifuged again at 15,000×g for 30 minutes. Each exosome pellet was resuspended in 2 mL PBS, which was then subdivided into fractions for Nanosight Nanoparticle Tracking Analysis (NTA), nucleic acid extraction, and protein extraction. Nucleic acids and proteins present outside of exosomes were enzymatically digested to prevent confounding of exosome cargo analysis. Exosome fractions designated for nucleic acid analysis were treated with DNAseI for 30 minutes at 37° C. and RNAseA for 5 minutes at RT and then supplemented with RNA Secure (Invitrogen) prior to lysis. Exosome fractions designated for protein analysis were treated with proteinaseK for 30 minutes at 37° C. Following enzymatic digestion, exosomes were pelleted a final time by addition of PEG 6,000 to 10%, and centrifugation at 15,000×g for 15 minutes. To assess exosome size and quantity, Nanosight NTA was performed. Each sample was read five times and the sample grand mean and standard error for each nanoparticle size bin were reported. Nanosight experiments were performed in technical duplicate. […]"}, "[5]": {"biological_target": "the molecule itself", "test": "Western blot of EV iodixanol gradient fractions (self-association)"}}}
{"molecule": "5′-GGTGGTGGTGGTTGTGGTGGTGGTGG-3′ (SEQ ID NO:2) (DNA, backbone not given here) [AS1411, oligodeoxynucleotide DNA aptamer targeting nucleolin]", "values": [{"measurement": "L1-ORF1p protein expression", "setting": "L1-ORF1p; NCI-H520 cells, high concentrations (20 μM)", "result": "without effect"}, {"measurement": "L1-ORF1p protein expression", "setting": "L1-ORF1p; any of the cell lines (data not shown)", "result": "without effect"}]}
{"molecule": "c1ccc2c(c1)cc1ccc3cccc4ccc2c1c34", "note": "[BaP, benzo[a]pyrene]", "values": [{"measurement": "exosome LINE-1 mRNA, Pfaffl method normalized to B-Actin mRNA", "setting": "LINE-1 mRNA", "result": "did not observe significant increases"}, {"measurement": "LINE-1 mRNA export in exosomes per cell", "setting": "LINE-1 mRNA; 0.25 μM", "result": "approximately two-fold"}, {"measurement": "LINE-1 mRNA export in exosomes per cell", "setting": "LINE-1 mRNA; 0.5 μM", "result": "approximately two-fold"}, {"measurement": "LINE-1 mRNA export in exosomes per cell", "setting": "LINE-1 mRNA; 1 μM", "result": "decreased export"}, {"measurement": "quantity of total exosome RNA", "setting": "LINE-1 mRNA; 1 μM", "result": "83.26 ± 16.94", "unit": "ng"}, {"measurement": "exosome B-Actin mRNA released per cell", "setting": "LINE-1 mRNA; fluorescence units adjusted by cell number", "result": "dose-dependent increases"}, {"measurement": "cell proliferation", "setting": "[1]; 48 hour exposure", "result": "reduce cell proliferation in a dose-dependent manner"}, {"measurement": "cell number at conclusion of exposure, mean (±SEM)", "setting": "[1]; 0.5 μM", "result": "14.0±2.3", "unit": "million cells"}, {"measurement": "cell number at conclusion of exposure, mean (±SEM)", "setting": "[1]; 1 μM", "result": "11.1±1.9", "unit": "million cells"}, {"measurement": "EV LINE-1 levels versus cellular LINE-1 levels", "setting": "LINE-1", "result": "mirrored within EVs"}, {"measurement": "cellular LINE-1 DNA copies per cell", "setting": "LINE-1 DNA; H460 cells", "result": "did not significantly change"}, {"measurement": "exosome LINE-1 DNA copies released per cell, mean (±SE)", "setting": "LINE-1 DNA; 0.25 μM", "result": "61.04±31.3", "unit": "copies"}, {"measurement": "exosome LINE-1 DNA copies released per cell, mean (±SE)", "setting": "LINE-1 DNA; 0.5 μM", "result": "62.43±28.98", "unit": "copies"}, {"measurement": "exosome LINE-1 DNA copies released per cell, mean (±SE)", "setting": "LINE-1 DNA; 1 μM", "result": "85.96±51.21", "unit": "copies"}, {"measurement": "ORFeus LINE-1 mRNA expression in lung", "setting": "[2]; male and female lungs, one week after treatment", "result": "significantly increased expression of the transgene"}, {"measurement": "activation of the LINE-1 transgene in other tissues", "setting": "[2]; stomach, heart, kidney, liver, intestine", "result": "only stomach, but not heart, kidney, liver or intestine, showed activation of the LINE-1 transgene"}, {"measurement": "toxic effects in treated mice", "setting": "[3]; ORFeus^LSL mice, at any time", "result": "No dramatic toxic effects"}, {"measurement": "lung histology: leukocytic infiltration", "setting": "[3]; mouse, in vivo", "result": "significant leukocytic infiltration into the lungs"}, {"measurement": "lung histology: vessel congestion and mononuclear cell infiltration", "setting": "[3]; mouse, in vivo", "result": "pulmonary vessel congestion with focal-to-diffuse mononuclear cell infiltration into parenchyma"}, {"measurement": "size range in which more exosomes were produced", "setting": "[4]; 0.25 μM", "result": "64.5 to 71.5", "unit": "nM"}, {"measurement": "size range in which more exosomes were produced", "setting": "[4]; 1 μM", "result": "61.5 to 77.5", "unit": "nM"}, {"measurement": "number of exosomes released per cell", "setting": "[4]; particles 30-150 nm normalized to cell number", "result": "increased"}]}
{"molecule": "B1", "values": [{"measurement": "binding result", "setting": "[5]", "result": "binds"}]}
